The source of these data is patent US20090082470A1, “STAT3 INHIBITING COMPOSITIONS AND METHODS” (priority 2007, published 2009).

One test deals with SV40 promoter. Briefly: SV40 luciferase reporter (STAT3-independent). Particulars: 20 μM, 48h. The class given is cell-based. The source says:
(§1) To screen the potential inhibitors that inhibit STAT3 's biological activity, we established Caov-3 cancer cell line that constitutively expresses active STAT3 with a stably integrated STAT3-dependent luciferase reporter construct, pLucTKS3. This construct contains multimerized STAT3 binding sites and its activation specifically depends on STAT3. We examined the effect of eight theoretical STAT3 inhibitors to inhibit STAT3-mediated production of luciferase.
(§2) According to embodiments illustrated by FIG. 3B, the clones stably transfected with pLucTKS3 STAT3-dependent luciferase reporter or SV40 luciferase reporter were treated with 20 μM of the STAT3 inhibitor for 48h and luciferase activity was measured.
(Reporter assays use an easily measured gene product as a stand-in for the process of interest.)

In test [1] the test system is STAT3. Description: Electrophoretic mobility shift assay, STAT3 DNA binding. The format is biochemical. The following applies: 30 μM, 30 min, MDA-MB-435s cell nuclear extract. An excerpt:
(§3) The reaction mixtures were resolved on 8% polyacylamide gel and visualized with autoradiography.
For orientation: A gel shift assay detects complexes by their altered migration in electrophoresis.

In test [2] the test system is MDA-MB-468, MDA-MB-435s, and MDA-MB-231 cell lines. Description: Apoptosis by FACS, cell lines with constitutively active STAT3. The following applies: 48 h. The class given is cell-based. On the procedure: (§4) According to embodiments of experimental data shown in FIG. 6A, the phosphorylation of STAT3 (Tyr705) in different cell lines: lane 1 with HSF, lane 2 with MCF-7, land 3 with MDA-MB-453, lane 4 with MDA-MB-231, lane 5 with MDA-MB-435s, and lane 6 with MDA-MB-468. According to embodiments shown in FIG. 6B, cell lines were treated with STAT3 inhibitor at concentrations as indicated for 48 h, and apoptotic cells were detected with FACS.

The subject of test [3] is DU 145 prostate cancer cell line. Description: Anti-proliferative activity, MTS assay, DU 145. The class given is cell-based. Particulars: Homo sapiens, MTS assay, 2,000 cells/well, means of 2 experiments in triplicate. The source says:
(§5) MCF-7 breast cancer cells, a cell line with no constitutive activation of STAT3, were used as negative control. […] In addition, the anti-proliferative activities are directly proportional to the level of constitutively active STAT3 expression (Table 1).
On the technique in general: Formazan colour is commonly taken as a measure of viable cells.

Test [4] has as its system MCF-7 and MDA-MB-453 cancer cell lines and human skin fibroblasts (HSF). Briefly: Apoptosis by FACS, cells lacking constitutively active STAT3. The format is cell-based. The following applies: 48 h, lack constitutively active STAT3. On the procedure:
as §4

The target of the next test is T1, JAK2 (Homo sapiens, UniProt O60674).
T1 construct: endogenous in cells
Description: Phosphorylation of JAK2. The format is cell-based.

Test [5] deals with STAT3. Briefly: STAT3 dimerization, co-immunoprecipitation of STAT3-FLAG and STAT3-HA. The class given is cell-based. Particulars: MDA-MB-435s cells, 20 μM, 24h. The method, then:
MDA-MB-435s cells were co-transfected with pCMV-STAT3-FLAG and pCMV-STAT3-HA plasmid constructs and immunoblot analyses were performed with anti-FLAG, anti-HA, and anti-STAT3, the results of which are shown in FIG. 5A. The cell lysates were then subjected to immunoprecipitation with an anti-FLAG or anti-HA antibody and immunoblot analyses were performed with anti-HA or anti-FLAG, respectively, the results of which are shown in FIG. 5B.
According to embodiments of experimental results shown in FIG. 5A, MDA-MB-435s cells were transfected with pCMV-STAT3-Flag and pCMV-STAT3-HA plasmid and the cell lysate was immunoblotted with anti-Flag, anti-HA, or anti-STAT3. According to embodiments shown in FIG. 5B, MDA-MB-435s cells were co-transfected with pCMV-STAT3-Flag and pCMV-STAT3-HA plasmids and were exposed to 20 μM of inhibitor for 24h, then cell lysate was immunoprecipitated with anti-HA or anti-Flag antibody, respectively and immunoblotted with HA, Flag, or STAT3 antibody. As shown in Lane 1 of FIG. 5B, no transfection was performed. In lane 2, untreated cells were transfected with pCMV-STAT3-Flag and pCMV-STAT3-HA plasmids.

Test [6] has as its system MCF-7 breast cancer cell line. Description: Anti-proliferative activity, MTS assay, MCF-7. The format is cell-based.
From the text: as §5

Another test has as its target T2, STAT1 (Homo sapiens, UniProt P42224).
T2 construct: endogenous in cells; host or cells: MDA-MB-435s nuclear extract
T2 sequence (P42224 1-750): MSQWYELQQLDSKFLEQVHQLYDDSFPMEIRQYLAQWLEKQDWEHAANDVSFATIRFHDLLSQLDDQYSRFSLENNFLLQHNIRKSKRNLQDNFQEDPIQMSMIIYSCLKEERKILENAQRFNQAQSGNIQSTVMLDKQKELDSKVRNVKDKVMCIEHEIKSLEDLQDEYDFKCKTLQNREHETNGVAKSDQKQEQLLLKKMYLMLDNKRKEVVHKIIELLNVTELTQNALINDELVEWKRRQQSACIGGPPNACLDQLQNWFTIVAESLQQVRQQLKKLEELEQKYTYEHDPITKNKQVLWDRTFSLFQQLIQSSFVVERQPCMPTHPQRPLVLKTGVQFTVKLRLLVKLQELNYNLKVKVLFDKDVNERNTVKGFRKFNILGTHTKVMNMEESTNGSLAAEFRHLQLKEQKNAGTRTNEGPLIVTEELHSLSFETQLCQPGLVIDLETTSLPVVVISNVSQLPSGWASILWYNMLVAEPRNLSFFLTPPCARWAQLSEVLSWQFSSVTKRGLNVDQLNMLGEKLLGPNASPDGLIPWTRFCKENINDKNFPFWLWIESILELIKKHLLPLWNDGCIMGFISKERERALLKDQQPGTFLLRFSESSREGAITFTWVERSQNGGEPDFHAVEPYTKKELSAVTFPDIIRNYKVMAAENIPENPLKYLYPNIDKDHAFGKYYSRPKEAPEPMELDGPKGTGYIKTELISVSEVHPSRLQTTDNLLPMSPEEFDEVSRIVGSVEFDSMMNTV
Description: Electrophoretic mobility shift assay, STAT1 DNA binding. The format is biochemical. Particulars: 30 μM, MDA-MB-435s cell nuclear extract.
From the text: as §3

The test system of test [7] is STAT3. Briefly: STAT3-dependent luciferase reporter (pLucTKS3) in Caov-3 cells. Particulars: 20 μM, 48h. The class given is cell-based.
From the text: as §1, §2

A further test concerns the target T3, Src (Homo sapiens, UniProt P12931).
T3 construct: endogenous in cells
Briefly: Phosphorylation of Src. The format is cell-based.

In a further test the test system is STAT5. Description: Electrophoretic mobility shift assay, STAT5 DNA binding. The format is biochemical. Particulars: 30 μM, MDA-MB-435s cell nuclear extract.
From the text: as §3

The next test has as its system cyclin D1 and Bcl-XL. Briefly: Immunoblot of STAT3-regulated genes. The class given is cell-based. The following applies: 20 μM and 30 μM.
The subject of test [8] is LNCaP prostate cancer cell line. Description: Anti-proliferative activity, MTS assay, LNCaP. The format is cell-based. The following applies: Homo sapiens, MTS assay, 2,000 cells/well, means of 2 experiments in triplicate.
From the text: as §5

The next test concerns AKT. Description: Phosphorylation of AKT. The format is cell-based.
For test [9], the system named is PC3 prostate cancer cell line. Briefly: Anti-proliferative activity, MTS assay, PC3. The format is cell-based. The following applies: MTS assay, 2,000 cells/well, means of 2 experiments in triplicate.
From the text: as §5

The subject of another test is ERK½. Description: Phosphorylation of ERK½. The class given is cell-based.

Where only a bound is given, the exact number is not on record here.

T3 sequence (P12931 whole entry): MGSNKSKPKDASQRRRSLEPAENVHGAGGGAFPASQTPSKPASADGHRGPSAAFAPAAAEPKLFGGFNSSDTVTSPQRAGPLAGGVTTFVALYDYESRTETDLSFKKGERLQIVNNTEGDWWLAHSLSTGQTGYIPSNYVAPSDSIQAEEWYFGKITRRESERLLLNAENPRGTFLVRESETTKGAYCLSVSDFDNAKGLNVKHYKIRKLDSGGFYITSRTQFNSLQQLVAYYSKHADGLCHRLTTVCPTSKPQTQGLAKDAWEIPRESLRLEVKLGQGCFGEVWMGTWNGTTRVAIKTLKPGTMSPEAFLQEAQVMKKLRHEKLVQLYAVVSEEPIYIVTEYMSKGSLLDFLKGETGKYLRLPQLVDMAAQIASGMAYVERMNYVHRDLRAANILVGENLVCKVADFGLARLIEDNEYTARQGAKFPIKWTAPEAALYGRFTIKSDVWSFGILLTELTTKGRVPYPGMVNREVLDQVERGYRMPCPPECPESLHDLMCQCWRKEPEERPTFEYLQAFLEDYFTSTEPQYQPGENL
T1 sequence (O60674 whole entry): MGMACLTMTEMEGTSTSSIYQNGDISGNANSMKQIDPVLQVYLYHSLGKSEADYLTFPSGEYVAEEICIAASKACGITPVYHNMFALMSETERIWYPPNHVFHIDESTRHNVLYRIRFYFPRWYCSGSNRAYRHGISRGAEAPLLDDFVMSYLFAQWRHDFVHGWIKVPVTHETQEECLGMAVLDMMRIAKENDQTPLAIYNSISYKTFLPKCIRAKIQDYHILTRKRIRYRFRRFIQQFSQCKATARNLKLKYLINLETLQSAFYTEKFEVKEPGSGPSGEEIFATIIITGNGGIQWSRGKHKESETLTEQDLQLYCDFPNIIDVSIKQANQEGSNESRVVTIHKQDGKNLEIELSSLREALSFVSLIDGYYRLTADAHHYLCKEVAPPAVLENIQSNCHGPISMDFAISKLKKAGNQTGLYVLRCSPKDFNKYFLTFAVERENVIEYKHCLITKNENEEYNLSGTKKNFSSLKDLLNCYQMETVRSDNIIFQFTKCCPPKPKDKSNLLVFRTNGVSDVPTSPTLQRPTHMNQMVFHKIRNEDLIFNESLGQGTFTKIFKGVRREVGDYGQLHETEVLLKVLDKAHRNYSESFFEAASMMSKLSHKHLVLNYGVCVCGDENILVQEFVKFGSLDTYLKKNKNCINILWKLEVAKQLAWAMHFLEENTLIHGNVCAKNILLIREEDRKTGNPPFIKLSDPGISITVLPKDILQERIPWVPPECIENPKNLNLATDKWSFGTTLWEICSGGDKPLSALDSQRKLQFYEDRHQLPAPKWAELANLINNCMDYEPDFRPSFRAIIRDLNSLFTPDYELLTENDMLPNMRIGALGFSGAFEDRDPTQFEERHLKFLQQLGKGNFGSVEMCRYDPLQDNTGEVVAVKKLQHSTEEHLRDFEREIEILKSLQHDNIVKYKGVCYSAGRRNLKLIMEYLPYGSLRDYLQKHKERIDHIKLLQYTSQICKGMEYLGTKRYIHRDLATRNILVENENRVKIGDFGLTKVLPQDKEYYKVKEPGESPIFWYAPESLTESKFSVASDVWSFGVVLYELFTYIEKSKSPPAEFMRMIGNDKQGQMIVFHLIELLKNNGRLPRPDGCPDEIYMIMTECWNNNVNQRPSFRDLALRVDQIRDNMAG

Regarding `C[C@@H]1CC(=O)c2c(ccc3c2C(=O)c2cccc(O)c2C3=O)C1` [STA-21, deoxytetrangomycin], the “luciferase activity under control of the SV40 promoter” value in the test on SV40 promoter is reported as “no significant difference”. Further, the “STAT3 DNA binding activity” value with STAT3 [1] is “specifically blocked STAT3 DNA binding”. Also, the “increase in percentage of apoptotic cells” value is recorded as 5-30 fold in test [2] and 0.5-1.2 fold in [4]. The IC50 in test [3] was 12.2 µM; in test [6] (Homo sapiens, MCF7, MTS assay, 2,000 cells/well, no constitutive STAT3 activation), above 100 µM; in [8], 30.1 µM; in [9] it was 18.7 µM. For the same molecule, the “phosphorylation of JAK2” value on JAK2 is on record as “did not inhibit”. Also, the “ability of STAT3-FLAG and STAT3-HA to dimerize” value in the test with STAT3 [5] is “significantly reduced”. In addition, in test [6] (cells with no constitutive STAT3 activation), the “anti-proliferative activity in MCF-7 cells (in words)” value is listed as “did not show any antiproliferative activity”. Besides, the “STAT1 DNA binding” value on STAT1 was “did not inhibit”. Besides, in the test on STAT3 [7], the “reduction in luciferase activity, pLucTKS3 transfected cells” value is given as around 6 fold. For the same molecule, the “phosphorylation of Src” value on Src is recorded as “did not inhibit”. In addition, the “STAT5 DNA binding” value in the test with STAT5 was “did not inhibit”. In addition, the “expression of STAT3-regulated genes cyclin D1 and Bcl-XL” value in the test on cyclin D1 and Bcl-XL was “inhibits the expression”. Moreover, in the test on AKT, the “phosphorylation of AKT” value was “did not inhibit”. Besides, the “phosphorylation of ERK½” value in the test with ERK½ is given as “did not inhibit”.

As a reminder, the IC50 is the concentration at which inhibition is half-maximal. High values mean a need for much substance, low ones inhibition by little substance.
